Test results published in PubChem BioAssay AID1918936 (Molecular Pharmacology Branch, DTP, NCI, 2023).

System: 349418-098-R-PDC complex spheroid viability
Assay: Anticancer human tumor 349418-098-R-PDC patient-derived lung adenocarcinoma cell line growth inhibition
Details: for IC50: curve of first compound; for viability, T/C: stronger effect = lower value
How it was run: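 Complex spheroids of tumor cells with HUVEC and human MSCs, exposed to iadademstat combined with other agents. Each agent tested in half-log steps from near clinical Cmax (else 10 microM top), DMSO ≤0.25%.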

[1] = second compound 0.1 µM, first compound 0.0316 µM
[2] = second compound 0.1 µM, first compound 0.1 µM
[3] = second compound 0.1 µM, first compound 0.316 µM
[4] = second compound 0.1 µM, first compound 1 µM
[5] = second compound 0.316 µM, first compound 0.0316 µM
[6] = second compound 0.316 µM, first compound 0.1 µM
[7] = second compound 0.316 µM, first compound 0.316 µM
[8] = second compound 0.316 µM, first compound 1 µM
[9] = second compound 1 µM, first compound 0.0316 µM
[10] = second compound 1 µM, first compound 0.1 µM
[11] = second compound 1 µM, first compound 0.316 µM
[12] = second compound 1 µM, first compound 1 µM
[13] = second compound 3.16 µM, first compound 0.0316 µM
[14] = second compound 3.16 µM, first compound 0.1 µM
[15] = second compound 3.16 µM, first compound 0.316 µM
[16] = second compound 3.16 µM, first compound 1 µM
[17] = second compound 10 µM, first compound 0.0316 µM
[18] = second compound 10 µM, first compound 0.1 µM
[19] = second compound 10 µM, first compound 0.316 µM
[20] = second compound 10 µM, first compound 1 µM
[21] = second compound 0.1 µM, first compound 0.00949 µM
[22] = second compound 0.1 µM, first compound 0.03 µM
[23] = second compound 0.1 µM, first compound 0.0949 µM
[24] = second compound 0.1 µM, first compound 0.3 µM
[25] = second compound 0.1 µM, first compound 0.949 µM
[26] = second compound 0.1 µM, first compound 3 µM
[27] = second compound 0.316 µM, first compound 0.00949 µM
[28] = second compound 0.316 µM, first compound 0.03 µM
[29] = second compound 0.316 µM, first compound 0.0949 µM
[30] = second compound 0.316 µM, first compound 0.3 µM
[31] = second compound 0.316 µM, first compound 0.949 µM
[32] = second compound 0.316 µM, first compound 3 µM
[33] = second compound 1 µM, first compound 0.00949 µM
[34] = second compound 1 µM, first compound 0.03 µM
[35] = second compound 1 µM, first compound 0.0949 µM
[36] = second compound 1 µM, first compound 0.3 µM
[37] = second compound 1 µM, first compound 0.949 µM
[38] = second compound 1 µM, first compound 3 µM
[39] = second compound 3.16 µM, first compound 0.00949 µM
[40] = second compound 3.16 µM, first compound 0.03 µM
[41] = second compound 3.16 µM, first compound 0.0949 µM
[42] = second compound 3.16 µM, first compound 0.3 µM
[43] = second compound 3.16 µM, first compound 0.949 µM
[44] = second compound 3.16 µM, first compound 3 µM
[45] = second compound 10 µM, first compound 0.00949 µM
[46] = second compound 10 µM, first compound 0.03 µM
[47] = second compound 10 µM, first compound 0.0949 µM
[48] = second compound 10 µM, first compound 0.3 µM
[49] = second compound 10 µM, first compound 0.949 µM
[50] = second compound 10 µM, first compound 3 µM
[51] = second compound 0.1 µM, first compound 0.00316 µM
[52] = second compound 0.1 µM, first compound 0.01 µM
[53] = second compound 0.316 µM, first compound 0.00316 µM
[54] = second compound 0.316 µM, first compound 0.01 µM
[55] = second compound 1 µM, first compound 0.00316 µM
[56] = second compound 1 µM, first compound 0.01 µM
[57] = second compound 3.16 µM, first compound 0.00316 µM
[58] = second compound 3.16 µM, first compound 0.01 µM
[59] = second compound 10 µM, first compound 0.00316 µM
[60] = second compound 10 µM, first compound 0.01 µM
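Further: spheroids exposed to agents for seven days before readout.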
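Wherever viability, T/C is given: 100% = DMSO vehicle control wells.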

## CC1(C)CCC(CN2CCN(c3ccc(C(=O)NS(=O)(=O)c4ccc(NCC5CCOCC5)c([N+](=O)[O-])c4)c(Oc4cnc5[nH]ccc5c4)c3)CC2)=C(c2ccc(Cl)cc2)C1 + NC1CC1c1ccc(-c2cccc(O)c2)cc1
Second compound 0.1 µM
  IC50: 1860 nM
Second compound 0.316 µM
  IC50: 1870 nM
Second compound 1 µM
  IC50: 2030 nM
Second compound 3.16 µM
  IC50: 2030 nM
Second compound 10 µM
  IC50: 1700 nM
[1]
  viability, T/C: 111%
[2]
  viability, T/C: 106%
[3]
  viability, T/C: 104%
[4]
  viability, T/C: 80.5%
Second compound 0.1 µM, first compound 3.16 µM
  viability, T/C: 23.9%
Second compound 0.1 µM, first compound 10 µM
  viability, T/C: 0.38%
[5]
  viability, T/C: 113%
[6]
  viability, T/C: 111%
[7]
  viability, T/C: 108%
[8]
  viability, T/C: 82.5%
Second compound 0.316 µM, first compound 3.16 µM
  viability, T/C: 22.9%
Second compound 0.316 µM, first compound 10 µM
  viability, T/C: 0.15%
[9]
  viability, T/C: 119%
[10]
  viability, T/C: 113%
[11]
  viability, T/C: 108%
[12]
  viability, T/C: 94.1%
Second compound 1 µM, first compound 3.16 µM
  viability, T/C: 22.5%
Second compound 1 µM, first compound 10 µM
  viability, T/C: 0.17%
[13]
  viability, T/C: 118%
[14]
  viability, T/C: 109%
[15]
  viability, T/C: 112%
[16]
  viability, T/C: 95.2%
Second compound 3.16 µM, first compound 3.16 µM
  viability, T/C: 21.9%
Second compound 3.16 µM, first compound 10 µM
  viability, T/C: 0.16%
[17]
  viability, T/C: 96.3%
[18]
  viability, T/C: 98.9%
[19]
  viability, T/C: 93.2%
[20]
  viability, T/C: 83.7%
Second compound 10 µM, first compound 3.16 µM
  viability, T/C: 10.5%
Second compound 10 µM, first compound 10 µM
  viability, T/C: 0.58%

## CCN(c1cc(-c2ccc(CN3CCOCC3)cc2)cc(C(=O)NCc2c(C)cc(C)[nH]c2=O)c1C)C1CCOCC1 + NC1CC1c1ccc(-c2cccc(O)c2)cc1
Second compound 0.1 µM
  IC50: 603 nM
Second compound 0.316 µM
  IC50: 650 nM
Second compound 1 µM
  IC50: 770 nM
Second compound 3.16 µM
  IC50: 758 nM
Second compound 10 µM
  IC50: 499 nM
[21]
  viability, T/C: 116%
[22]
  viability, T/C: 107%
[23]
  viability, T/C: 109%
[24]
  viability, T/C: 74%
[25]
  viability, T/C: 34.4%
[26]
  viability, T/C: 11.4%
[27]
  viability, T/C: 120%
[28]
  viability, T/C: 121%
[29]
  viability, T/C: 113%
[30]
  viability, T/C: 77%
[31]
  viability, T/C: 37.5%
[32]
  viability, T/C: 11.9%
[33]
  viability, T/C: 123%
[34]
  viability, T/C: 124%
[35]
  viability, T/C: 120%
[36]
  viability, T/C: 89.2%
[37]
  viability, T/C: 42%
[38]
  viability, T/C: 14%
[39]
  viability, T/C: 126%
[40]
  viability, T/C: 121%
[41]
  viability, T/C: 122%
[42]
  viability, T/C: 89.1%
[43]
  viability, T/C: 41.1%
[44]
  viability, T/C: 14.3%
[45]
  viability, T/C: 107%
[46]
  viability, T/C: 102%
[47]
  viability, T/C: 107%
[48]
  viability, T/C: 70.8%
[49]
  viability, T/C: 23.8%
[50]
  viability, T/C: 11.2%

## COc1cc(Nc2ncc3c(n2)-c2ccc(Cl)cc2C(c2c(F)cccc2OC)=NC3)ccc1C(=O)O + NC1CC1c1ccc(-c2cccc(O)c2)cc1
Second compound 0.1 µM
  IC50: 26 nM
Second compound 0.316 µM
  IC50: 69.9 nM
Second compound 1 µM
  IC50: 53.9 nM
Second compound 3.16 µM
  IC50: 57.8 nM
Second compound 10 µM
  IC50: 42.9 nM
[51]
  viability, T/C: 75.4%
[52]
  viability, T/C: 53.7%
[1]
  viability, T/C: 50.2%
[2]
  viability, T/C: 48.7%
[3]
  viability, T/C: 47.5%
[4]
  viability, T/C: 38.7%
[53]
  viability, T/C: 74%
[54]
  viability, T/C: 54.4%
[5]
  viability, T/C: 55.4%
[6]
  viability, T/C: 51%
[7]
  viability, T/C: 45.8%
[8]
  viability, T/C: 38.2%
[55]
  viability, T/C: 79.1%
[56]
  viability, T/C: 54.5%
[9]
  viability, T/C: 51.8%
[10]
  viability, T/C: 55.4%
[11]
  viability, T/C: 50.4%
[12]
  viability, T/C: 35.2%
[57]
  viability, T/C: 73.2%
[58]
  viability, T/C: 47.5%
[13]
  viability, T/C: 59.6%
[14]
  viability, T/C: 47.5%
[15]
  viability, T/C: 43.7%
[16]
  viability, T/C: 31.1%
[59]
  viability, T/C: 62.1%
[60]
  viability, T/C: 44.7%
[17]
  viability, T/C: 55.1%
[18]
  viability, T/C: 49.1%
[19]
  viability, T/C: 34.4%
[20]
  viability, T/C: 25.4%

## Cn1ncnc1C1c2n[nH]c(=O)c3cc(F)cc(c23)NC1c1ccc(F)cc1 (stereo not given) + NC1CC1c1ccc(-c2cccc(O)c2)cc1
Second compound 0.1 µM
  IC50: > 100 nM
Second compound 0.316 µM
  IC50: > 100 nM
Second compound 1 µM
  IC50: > 100 nM
Second compound 3.16 µM
  IC50: > 100 nM
Second compound 10 µM
  IC50: > 100 nM
Second compound 0.1 µM, first compound 0.000316 µM
  viability, T/C: 115%
Second compound 0.1 µM, first compound 0.001 µM
  viability, T/C: 105%
[51]
  viability, T/C: 112%
[52]
  viability, T/C: 105%
[1]
  viability, T/C: 101%
[2]
  viability, T/C: 102%
Second compound 0.316 µM, first compound 0.000316 µM
  viability, T/C: 112%
Second compound 0.316 µM, first compound 0.001 µM
  viability, T/C: 110%
[53]
  viability, T/C: 111%
[54]
  viability, T/C: 104%
[5]
  viability, T/C: 106%
[6]
  viability, T/C: 101%
Second compound 1 µM, first compound 0.000316 µM
  viability, T/C: 119%
Second compound 1 µM, first compound 0.001 µM
  viability, T/C: 112%
[55]
  viability, T/C: 106%
[56]
  viability, T/C: 107%
[9]
  viability, T/C: 108%
[10]
  viability, T/C: 101%
Second compound 3.16 µM, first compound 0.000316 µM
  viability, T/C: 114%
Second compound 3.16 µM, first compound 0.001 µM
  viability, T/C: 117%
[57]
  viability, T/C: 105%
[58]
  viability, T/C: 115%
[13]
  viability, T/C: 103%
[14]
  viability, T/C: 103%
Second compound 10 µM, first compound 0.000316 µM
  viability, T/C: 99.1%
Second compound 10 µM, first compound 0.001 µM
  viability, T/C: 100%
[59]
  viability, T/C: 98.9%
[60]
  viability, T/C: 96.9%
[17]
  viability, T/C: 90.9%
[18]
  viability, T/C: 86.8%

## NS(=O)(=O)OCC1CC(n2ccc3c(NC4CCc5ccccc54)ncnc32)CC1O (stereo not given) + NC1CC1c1ccc(-c2cccc(O)c2)cc1
Second compound 0.1 µM
  IC50: 64.1 nM
Second compound 0.316 µM
  IC50: 59.1 nM
Second compound 1 µM
  IC50: 59.6 nM
Second compound 3.16 µM
  IC50: 60.7 nM
Second compound 10 µM
  IC50: 38 nM
[21]
  viability, T/C: 116%
[22]
  viability, T/C: 86.6%
[23]
  viability, T/C: 30.5%
[24]
  viability, T/C: 11.9%
[25]
  viability, T/C: 5.29%
[26]
  viability, T/C: 4.99%
[27]
  viability, T/C: 120%
[28]
  viability, T/C: 82.3%
[29]
  viability, T/C: 26.6%
[30]
  viability, T/C: 12.4%
[31]
  viability, T/C: 5.84%
[32]
  viability, T/C: 4.12%
[33]
  viability, T/C: 124%
[34]
  viability, T/C: 77%
[35]
  viability, T/C: 31.9%
[36]
  viability, T/C: 11.3%
[37]
  viability, T/C: 5.2%
[38]
  viability, T/C: 4.27%
[39]
  viability, T/C: 124%
[40]
  viability, T/C: 81.6%
[41]
  viability, T/C: 29.2%
[42]
  viability, T/C: 12.2%
[43]
  viability, T/C: 5.08%
[44]
  viability, T/C: 4.44%
[45]
  viability, T/C: 106%
[46]
  viability, T/C: 55.5%
[47]
  viability, T/C: 28.1%
[48]
  viability, T/C: 9.97%
[49]
  viability, T/C: 4.94%
[50]
  viability, T/C: 2.73%
